Test results as given in US8642357B2, “Semaphorin 7A plays a critical role in TGF-β1-induced pulmonary fibrosis and alveolar destruction” (Yale University, priority 2009, dated 2014).

Tested on: C57BL/6 female mice
Experiment: Bleomycin-induced pulmonary fibrosis and collagen accumulation
Type: in vivo
Settings: 0.075 Unit/mouse intratracheal; most impressive 3 weeks after administration
Procedure: Animals were anesthetized, a median sternotomy was performed, and right heart perfusion was accomplished with calcium and magnesium-free phosphate-buffered saline (PBS). The heart and lungs were then removed en bloc. The right lung was frozen in liquid nitrogen and stored at −80° C. until used. Collagen content was determined by quantifying total soluble collagen using the Sircol Collagen Assay kit (Biocolor) according to the manufacturer's instructions. The data is expressed as the collagen content of the entire right lung.
The lungs were removed en bloc as described above, inflated at 25 cm pressure with PBS containing 0.5% low melting point agarose gel, fixed, embedded in paraffin, sectioned and stained. Hematoxylin and eosin, and Mallory's trichrome stains were performed in the Research Histology Laboratory of the Department of Pathology at the Yale University School of Medicine.
Bleomycin (0.075 Unit/mouse) or vehicle control were administered to C57BL/6 female mice as previously described by Jiang et al. (2004, J Clin Invest. 114:291-299).
Studies were also undertaken to determine if the biology of SEMA 7A that was defined using the Tg modeling system was also relevant to fibrotic responses that were induced by other stimuli. […]

In the case of Bleomycin, the “Pulmonary fibrosis and collagen accumulation” value is reported as “significant increase”.
